From US20240350655A1, “THIOL-CONJUGATION WITH UNSATURATED PHOSPHORUS(V) COMPOUNDS” (FORSCHUNGSVERBUND BERLIN E.V., priority 2021, published 2024)

Assays:
[1] = Second-order rate constant of the reaction with glutathione, fluorescent HPLC; conditions: 1 eq. glutathione (0.5 mM), 50 mM ABC buffer, 1 mM EDTA, pH 8.5
Description: The second-order rate constant of the reaction between glutathione and EDANS-phosphinates CS265 and CS266 was determined according to the following procedure: The EDANS-phosphinate was reacted with 1 eq. of glutathione (0.5 mM) in the presence of 50 mM ABC buffer (ammonium bicarbonate buffer) and 1 mM EDTA at pH 8.5. The reactions were performed in a volume of 0.1 ml. The first sample (t=0) was drawn before the addition of glutathione. Samples were taken after 1, 2, 5, 12, 22 and 35 min (CS266) or after 30, 60, 120, 240 and 1440 min (CS265). Samples were drawn in a volume of 10 μl and immediately diluted into 200 μl of 50 mM NaOAc buffer at pH 3.5, to stop the reaction. Those samples were subjected to fluorescent HPLC analyses, injecting 50 μl each.

[2] = target: T1, eGFP C70M S147C (Aequorea victoria, UniProt P42212, C70M/F64L/H231L/S147C/S65T); experiment: Tandem-mass spectrometry of tryptically digested labelled eGFP; conditions: 10 eq. phosphinate, PBS pH 7.4, 10% DMSO
T1 construct: protease cleavage site highlighted with subscripts; His-tag (N); protease cleavage site (N); made in house
T1 sequence (P42212 with tags, fused parts or gaps F64L/S65T/C70M/S147C/H231L): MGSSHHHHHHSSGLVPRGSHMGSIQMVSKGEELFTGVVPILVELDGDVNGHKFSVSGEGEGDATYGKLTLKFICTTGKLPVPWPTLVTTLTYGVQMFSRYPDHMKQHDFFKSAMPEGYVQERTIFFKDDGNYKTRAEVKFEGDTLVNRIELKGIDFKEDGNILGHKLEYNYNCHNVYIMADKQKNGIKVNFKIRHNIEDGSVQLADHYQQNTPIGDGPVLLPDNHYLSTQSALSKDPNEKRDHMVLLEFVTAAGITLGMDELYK
Description: At first phosphinate-1 was reacted with an eGFP mutant containing a single addressable Cys (eGFP C70M S147C). Using 10 eq. phosphinate in PBS pH 7.4 containing 10% DMSO as a co-solvent, the reaction reached completion after 30 minutes (FIG. 5d).
1 in PBS (30 min, r.t.) followed by purification via 0.5 mL Zeba™ Spin Desalting Columns with 7K MWCO (Thermo Fisher Scientific, USA) into phosphate-buffer (20 mM, pH 7.5). Complete labeling was verified via intact-protein MS.

[3] = target: T1, eGFP C70M S147C; experiment: Second-order rate constant of the reaction with eGFP, intact protein-MS; conditions: one equivalent GFP, Tris-buffer (pH 8.3), 90 μM, room-temperature
Description: Subsequently, this new compound-class was compared with other Cys-reactive electrophiles in terms of reaction kinetics. The estimation of reaction-kinetics is particularly challenging for bis-reactive reagents because the second thiol addition interferes with the analysis. […] Consequently, 2 was reacted with one equivalent GFP in Tris-buffer (pH 8.3) at a concentration of 90 μM at room-temperature.
Determination of the second-order rate constant of the reaction between eGFP (C70M S147C) and phosphinate 2. […] Reactions were carried out in triplicate. 90 μl eGFP (0.1 mM) were mixed with 10 μl of a 0.9 mM solution of phosphinate 2 in DMSO. Samples were drawn after 60, 90, 150, 210 and 300 minutes and analyzed via intact protein-MS. […] Calculated by the intensity of the deconvoluted mass in relation to the internal standard eGFP (C70M). […] The slope corresponds to the second order rate constant. Shown are mean and error of three independent measurements.

C#CP(=O)(OCC)c1cn(CCC(=O)NCCNc2cccc3c(S(=O)(=O)O)cccc23)nn1 (stereo not drawn) [CS266, EDANS-1,2,3-triazol-ethyl-ethynylphosphinate]
reaction kinetics relative to CS265 [1]: roughly ten times faster than with CS265

C#CP(=O)(C#C)OCC [compound 1, ethyl diethynyl phosphinate]
amino acids modified (MS/MS) [2]: no amino acid other than Cys was modified

C#CCCOP(=O)(C#C)C#C [compound 2, but-3-yn-1-yl-diethynylphosphinate]
second-order rate constant [3]: ~0.47 M⁻¹ s⁻¹
